{
  "source": "patent US20070161697A1",
  "about": "“Hydrazide type compounds and the use thereof in pharmaceutical compositions for the treatment of cardiovascular diseases” (priority 2004, published 2007)",
  "type_in_all_cases": "in vivo",
  "key": {"[1]": {"test_system": "ApoE negative mice", "experiment": "Weight gain / abdominal fatty mass in ApoE negative mice on normal regimen", "conditions": "20 μg per day for 41 days; normal dietary regimen; FIG. 2", "procedure": "The mice were treated for 41 days at a dose of 20 μg of compound CGP02-01 per day. The control mice and the treated mice were fed with a normal dietary regimen without any cholesterol overload."}, "[2]": {"test_system": "Wistar rats", "experiment": "Insulin in plasma, rats on dietary regimen rich in fructose", "conditions": "50 mg/kg oral", "procedure": "Secondly, the activity of the compound CGP 02-01 was studied using a reference rat-fructose model. Groups of Wistar rats (n=12) were subjected for 3 weeks to a dietary regimen containing […] of fructose. […] Groups of rats subsequently received by forced feeding 50 mg/kg of the compound CGP 02-01 dissolved in a 2% tween solution prepared in methylcellulose. The blood samples for the biochemical analyses were performed after 1, 2 and 3 weeks. Independent groups of rats wee treated under the same conditions with metformin hydrochloride at a dose of 50 mg/kg. The metformin served as a reference in this metabolic syndrome model. Assay of insulin in plasma may be performed by radioimmunological assay using commercially available kits comprising specific anti-insulin antibodies of mice or rats. One may for example use the rat/mouse ELISA kits, Linco research (ref. EZRMI-13K)."}, "[3]": {"test_system": "Wistar rats", "experiment": "Circulating triglycerides, rats on dietary regimen rich in fructose", "conditions": "oral", "procedure": "Secondly, the activity of the compound CGP 02-01 was studied using a reference rat-fructose model. Groups of Wistar rats (n=12) were subjected for 3 weeks to a dietary regimen containing […] of fructose. […] Groups of rats subsequently received by forced feeding 50 mg/kg of the compound CGP 02-01 dissolved in a 2% tween solution prepared in methylcellulose. The blood samples for the biochemical analyses were performed after 1, 2 and 3 weeks. Independent groups of rats wee treated under the same conditions with metformin hydrochloride at a dose of 50 mg/kg. The metformin served as a reference in this metabolic syndrome model. Assay of serum triglycerides may be performed enzymatically using the commercially available kit. One may use kits from Biomérieux for example (ref. 61.238). In summary, the triglycerides are treated with a lipase in order to generate fatty acids. In the presence of ATP, the glycerol is transformed by glycerokinase into glycerol 3 phosphate. The glycerol 3 phosphate is subsequently transformed into dihydroxyacetone in generating oxygenated water (H202) which may be detected by formation of quinoneimine in the presence of parachlorophenol, amino-4-antipyrin and peroxidase. The intensity of the quinoneimine coloration is subsequently measured at 505 nm. This coloration is proportional to the quantity of triglycerides present in the sample."}, "[4]": {"test_system": "ApoE −/− mice", "experiment": "Analysis of coronary ischaemia in ApoE −/− mice", "conditions": "injected; normal or cholesterol-rich regimen; FIG. 15", "source_text": "(§1) Firstly, mice devoid of the coding gene for Apo lipoprotein E (ApoE −/−) have been used. These mice represent a model of choice of studying early atherosclerosis and development of a plaque rich in foamy macrophages. Male C57BL/6J mice homozygote for deletion of the ApoE gene were subjected to a normal dietary regimen until the age of eight weeks. These mice (n=8 per group) subsequently received ad libitum and for 12 weeks either a dietary regimen not enriched with cholesterol or fat, or an enriched regimen, containing 1.5 g/kg of cholesterol and 200 g/kg of fat of milk origin. The untreated mice underwent daily intraperitoneal injections of a solution containing DMSO at 10%. The treated mice received by intraperitoneal injection the same solution containing 2 or 20 μg (i.e. 0.1 mg/kg/day or 1 mg/kg/day) of the compound CGP 02-01. Following the blood sample for the biochemical analyses, the mice were killed.\nAfter killing the ApoE −/− mice subjected to a normal dietary regimen or a dietary regimen rich in cholesterol, the hearts of these animals are observed macroscopically. The rate of ischaemic lesions is observed (FIG. 15) and quantified by the presence or absence of lesions (FIG. 16)."}, "[5]": {"test_system": "ApoE −/− mice", "experiment": "Abdominal fatty mass, ApoE mice on regimen rich in cholesterol and fat", "conditions": "1 mg/kg, 3 months", "source_text": "as §1\nApoE mice subjected to a dietary regimen rich in cholesterol and fat were killed after 3 months of treatment with the compound CGP 02-01 at doses of 0.1 mg/kg and 1 mg/kg. The abdominal fatty mass was recovered by dissection, dried and expressed as dry weight."}, "[6]": {"test_system": "ApoE −/− mice", "experiment": "Free cholesterol in plasma, ApoE −/− mice on normal non-enriched dietary regimen", "conditions": "1 mg/kg; 3 months; p<0.05", "source_text": "as §1\nMeasurement of free cholesterol may be performed by an enzymatic method. The free cholesterol is oxidised by cholesterol oxidase into Delta 4 cholestenon and simultaneously produces hydrogen peroxide. The hydrogen peroxide subsequently allows oxidative condensation of the DHESA and the aminoantipyrinre, producing a blue colour. The quantity of free cholesterol is subsequently measured by the absorbance of the blue colour. […]"}, "[7]": {"test_system": "ApoE −/− mice", "experiment": "Triglyceride deposit in the aortas of ApoE −/− mice", "conditions": "control 185±33", "source_text": "as §1\nThe triglycerides which accumulate in the aortic wall were measured in the following manner: the aortas of the animals are rinsed with physiological saline after dissection. The lipid mass of the adventitia is eliminated by dissection and the intima media is dehydrated. The triglyceride level is measured and expressed as the weight of triglycerides per dry weight of tissue."}, "[8]": {"test_system": "ApoE −/− mice", "experiment": "Insulin in plasma, ApoE −/− mice on regimen rich in cholesterol", "source_text": "as §1\nAssay of insulin in plasma may be performed by radioimmunological assay using commercially available kits comprising specific anti-insulin antibodies of mice or rats. One may for example use the rat/mouse ELISA kits, Linco research (ref. EZRMI-13K)."}, "[9]": {"test_system": "ApoE negative mice", "experiment": "Histological analysis of the aortic lesions (atheroma plaque) of ApoE negative mice", "conditions": "aorta of treated vs untreated mice; FIG. 6", "source_text": "as §1\nThe aortas of the mice are fixed with paraformaldehyde and are dissected into 10 μm sections for histological analysis of the lesions (FIG. 6)."}},
  "data": [
    {"smiles": "COc1cc(O)c(/C=N/NC(=O)c2cc3ccccc3s2)c(OC)c1", "note": "[CGP02-01, N′-[(1E)-(2-hydroxy-4,6-dimethoxyphenyl)methylene]-1-benzothiophene-2-carbohydrazide]", "values": [
      {"measurement": "Weight gain (abdominal fatty mass)", "setting": "[1]", "value": "reduction in weight gain"},
      {"measurement": "Variation (reduction) of insulin level", "setting": "[2]", "value": 11.3, "unit": "%"},
      {"measurement": "Plasma insulin level", "setting": "[2]; 3 weeks, control 1.85±0.04", "value": "1.64 ± 0.03", "unit": "ng/mL"},
      {"measurement": "Plasma triglyceride level", "setting": "[3]; 50 mg/kg, 3 weeks, control 1.39±0.13", "value": "0.47 ± 0.07", "unit": "g/L"},
      {"measurement": "Variation of plasma triglyceride level", "setting": "[3]; p<0.01", "value": 66.2, "unit": "%"},
      {"measurement": "Coronary ischaemic (cardiac) lesions", "setting": "[4]", "value": "considerably reduced"},
      {"measurement": "Reduction in abdominal fatty mass", "setting": "[5]", "value": 48.3, "unit": "%"},
      {"measurement": "Abdominal fatty mass (dry weight)", "setting": "[5]; control 760±231, p<0.01", "value": "393 ± 78", "unit": "mg"},
      {"measurement": "Effect on plasma free cholesterol variation vs untreated", "setting": "[6]", "value": 22.7, "unit": "%"},
      {"measurement": "Triglyceride deposit on the aortic wall", "setting": "[7]; 0.1 mg/kg", "value": "156 ± 31", "unit": "µg/mg"},
      {"measurement": "Triglyceride deposit on the aortic wall", "setting": "[7]; 1 mg/kg, three months, n=8", "value": "131 ± 42 µg/mg (dry weight)"},
      {"measurement": "Variation of plasma insulin level", "setting": "[8]; 0.1 or 1 mg/kg", "value": 18.8, "unit": "%"},
      {"measurement": "Plasma insulin level", "setting": "[8]; 0.1 or 1 mg/kg IP, 3 months, control 1.17±0.2, p<0.01", "value": "0.95 ± 0.16", "unit": "ng/mL"},
      {"measurement": "Foamy macrophages and inflammatory reaction in the atheroma plaque", "setting": "[9]", "value": "significant reduction in these macrophages"}
    ]}
  ]
}
